From patent US11952349B2, “Anti-cancer nuclear hormone receptor-targeting compounds” (Nuvation Bio Inc., priority 2019, dated 2024) come the findings set out here.

Read-outs that look alike come from different tables or passages of the source.

The test system of one assay is LNCap cells. As to the kind of experiment: Cell viability assay (CellTiterGlo, 6 days) LNCap. The settings on record: Homo sapiens, 144 h. The class given is cell-based. As to the method: Cell viability assay: LNCap, 22Rv1, and T47D cells were seeded at a density of 1500-2000 cells/well in 96 well plates, and a ‘T0’ (timepoint 0) was included along with the assay plate. The plates were then incubated at 37° C., 5% CO2 in a cell culture incubator overnight. On the next day, the ‘T0’ plate was assayed using CellTiterGlo (Promega, Inc) according to the manufacturer's instructions. The appropriate compounds were diluted in DMSO and added to the assay plate (final DMSO concentration of 0.2%) on the next day. The assay plates were incubated for 6 days at 37° C., 5% CO2. After the incubation period, the plates were assayed using CellTiterGlo (Promega, Inc) according to the manufacturer's instructions and luminescence was read on the EnVision plate reader. Inhibition the tested compounds was determined by the following formula: Inhibition rate (%)=(1−(RLU compound−RLU day0)/(RLU control−RLU day0))*100%. GraphPadPrism was used to analyze the data and determine absolute IC50 values.
For orientation: Cellular ATP, detected with luciferase, serves as a proxy for viable cell number.

Another assay concerns the target Human recombinant PARP2 (Homo sapiens, UniProt Q9UGN5). Kind of assay: RBC HotSpot PARP2 assay (radioisotope-based filter binding). The class given is biochemical. As to the method: The following methods are for evaluating the in vitro biology properties of the test articles. • a. RBC HotSpot Poly(ADP-ribose) Polymerases 1 (PARP1) and Poly(ADP-ribose) Polymerases 2 (PARP2) Assays: The assay was conducted at Reaction Biology Corporation (RBC; Malvern, PA). The assay principle is radioisotope-based filter binding assay where incorporation of radioisotope-labeled NAD^+ into the substrate captured on filter is detected after washout free NAD^+. Data were analyzed using Excel and GraphPad Prism software for IC50 curve fits. Each assay was conducted with PJ34 as a positive control. PARP1 assay: Human recombinant PARP1 at a final concentration of 2.5 nM was combined with histone H4 (20 μM) and test articles at various concentrations in reaction buffer (50 mM Tris-HCL, pH 8.0, 50 mM NaCl, 10 mM MgCl2, 1 mM DTT, 1% DMSO, and 20 μg/mL activated DNA). The solution was inoculated for 20 min at room temperature and the reaction initiated by adding [adenylate-^32P]-Nicotinamide Adenine Dinucleotide, ^32P-NAD^+ at a final concentration of 10 μM. After incubation for 2 hrs at room temperature, the reaction mixture was filtered and washed with 0.75% phosphoric acid for radioactivity detection. • ii. PARP2 assay: Human recombinant PARP2 at a final concentration of 2.5 nM was combined with histone H3 (20 μM) and test articles at various concentrations in reaction buffer (50 mM Tris-HCL, pH 8.0, 50 mM NaCl, 10 mM MgCl2, 1 mM DTT, 1% DMSO, and 20 μg/mL activated DNA). The solution was inoculated for 20 min at room temperature and the reaction was initiated by adding [adenylate-^32P]-Nicotinamide Adenine Dinucleotide, ^32P-NAD^+ at a final concentration of 10 μM. After incubation for 2 hrs at room temperature, the reaction mixture was filtered and washed with 0.75% phosphoric acid for radioactivity detection. • b. AR binding assay: AR in LNCaP cytosol was used for determining the binding affinity of test articles and the reference compound—progesterone (Sigma, Cat: E2785, St. Louis, MO). IC50 s were determined using 8 concentrations/compound. Cytosol is plated at 200 μg/well (100 μL) into a 96-well conical polypropylene plate (Agilent, Cat: 5042-1385, Santa Clara, CA) and mixed with 3 μL of test compound. After adding 100 μL of ^3H-methyltrienolone (PerkinElmer, Cat: NET590250UC, San Jose, CA), the plate was sealed and shaken at 300 rpm at 4° C. for 24 hours. Post incubation, 100 μL of radioligand adsorption buffer containing 10 mM Tris-HCl, pH 7.4; 1.5 mM EDTA; 1 mM DTT; 0.25% charcoal; 0.0025% dextran was added to individual wells. Plate was shaken for 15 min at 4° C. followed by centrifugation at 3000 rpm for 30 min at 4° C. 150 μL of supernatant is transferred into scint-tube (PerkinElmer, Cat: 6000192) and mixed with 2 mL of Ultima Gold Cocktail (PerkinElmer, Cat: 6013329). Radioactivity is counted using a TriCarb 2910 TR scintillation counter (PerkinElmer). Inhibition of the radioactivity by test articles was calculated using the equation below: % Inhibition=(1−(Assay well−Average_LC)/(Average_HC−Average_LC))×100%. • IC50 values (Table 6) were calculated and graphed using the model “log(inhibitor) vs. response—Variable slope” included in GraphPad Prism 5 (San Diego, CA). The Ki values were further calculated using the equation below where [L] is the radioligand concentration (1 nM) used in this study. Kd value was 0.332 nM. Ki=IC50/(1+[L]/Kd) • c. AR transactivation: Human AR cloned into a CMV vector backbone is used for the transactivation study. HEK-293 cells are plated at 80,000 cells per well of a 24 well plate in DME+5% csFBS. Twenty four hours later, the cells are transfected using Lipofectamine (Invitrogen, Carlsbad, CA) with 0.25 μg GRE-LUC, 0.01 μg CMV-LUC (renilla luciferase) and 25 ng of the AR in OPTIMEM medium. The cells are treated 24 hrs after transfection with various ligands (10^−12 to 10^−5 M final concentrations) and luciferase assay performed 48 hours after transfection. […]

Sequence of Human recombinant PARP2 (Q9UGN5 whole entry): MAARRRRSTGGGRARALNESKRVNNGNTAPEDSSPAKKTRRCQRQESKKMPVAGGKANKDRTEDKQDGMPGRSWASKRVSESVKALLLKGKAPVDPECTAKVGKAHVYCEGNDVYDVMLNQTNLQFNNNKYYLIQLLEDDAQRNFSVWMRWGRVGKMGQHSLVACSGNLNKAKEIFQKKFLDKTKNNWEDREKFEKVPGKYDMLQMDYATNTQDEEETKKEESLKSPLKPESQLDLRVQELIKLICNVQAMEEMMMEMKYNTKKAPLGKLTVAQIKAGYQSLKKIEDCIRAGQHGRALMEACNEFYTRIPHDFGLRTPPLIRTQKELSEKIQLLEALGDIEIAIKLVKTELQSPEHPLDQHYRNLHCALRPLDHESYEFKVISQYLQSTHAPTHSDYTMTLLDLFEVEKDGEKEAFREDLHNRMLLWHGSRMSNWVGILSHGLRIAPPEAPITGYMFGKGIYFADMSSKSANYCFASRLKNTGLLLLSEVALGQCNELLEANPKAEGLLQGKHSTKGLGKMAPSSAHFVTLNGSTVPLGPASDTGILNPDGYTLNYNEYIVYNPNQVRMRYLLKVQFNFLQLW

For `C[C@]12Cc3cn[nH]c3C[C@@H]1CC[C@@H]1[C@@H]2CC[C@]2(C)[C@@H](OCCCCCC(=O)N3CCN(C(=O)c4cc(Cc5n[nH]c(=O)c6ccccc56)ccc4F)CC3)CC[C@@H]12` [Compound 1394, 4-(3-(4-(6-(((1S,3aS,3bR,5aS,10aS,10bS,12aS)-10a,12a-dimethyl-1,2,3,3a,3b,4,5,5a,6,7,10,10a,10b,11,12,12a-hexadecahydrocyclopenta[5,6]naphtho[1,2-f]indazol-1-yl)oxy)hexanoyl)piperazine-1-carbonyl)-4-fluorobenzyl)phthalazin-1(2H)-one], the IC50 was in the range of 100 to 1000 nM in the assay on LNCap cells (Table 7) and 1 to 10 nM on Human recombinant PARP2 (Table 9, read-out: PARP2).
For `C[C@]12C[C@H](CCCCCC(=O)N3CCN(C(=O)c4cc(Cc5n[nH]c(=O)c6ccccc56)ccc4F)CC3)C3=C4CCC(=O)C=C4CC[C@H]3[C@@H]1CCC2O` (stereo partly drawn) [Compound 138, 4-(4-fluoro-3-(4-(6-((8S,11S,13S,14S)-17-hydroxy-13-methyl-3-oxo-2,3,6,7,8,11,12,13,14,15,16,17-dodecahydro-1H-cyclopenta[a]phenanthren-11-yl)hexanoyl)piperazine-1-carbonyl)benzyl)phthalazin-1(2H)-one] the same measures were 100 to 1000 nM and < 1 nM.
On to `CC#C[C@]1(O)CC[C@H]2[C@@H]3CCC4=CC(=O)CCC4=C3[C@@H](c3ccc(N(C)CCCCCC(=O)N4CCN(C(=O)c5cc(Cc6n[nH]c(=O)c7ccccc67)ccc5F)CC4)cc3)C[C@@]21C` [Compound 135, 4-(4-fluoro-3-(4-(6-((4-((8S,11R,13S,14S,17S)-17-hydroxy-13-methyl-3-oxo-17-(prop-1-ynyl)-2,3,6,7,8,11,12,13,14,15,16,17-dodecahydro-1H-cyclopenta[a]phenanthren-11-yl)phenyl)(methyl)amino)hexanoyl)piperazine-1-carbonyl)benzyl)phthalazin-1(2H)-one], for which the IC50 was 100 to 1000 nM with LNCap cells (Table 8) and < 1 nM at Human recombinant PARP2 (Table 9, read-out: PARP2).
Consider `C[C@@]12CCC(=O)C[C@H]1CC[C@H]1[C@H]2CC[C@]2(C)[C@@H]1CC[C@H]2OCCCCCCNC(=O)c1cc(Cc2n[nH]c(=O)c3ccccc23)ccc1F` (stereo in doubt) [Compound 1426, N-(6-((5R,8S,9R,10R,13R,14R,17R)-10,13-dimethyl-3-oxohexadecahydro-1H-cyclopenta[a]phenanthren-17-yloxy)hexyl)-2-fluoro-5-((4-oxo-3,4-dihydrophthalazin-1-yl)methyl)benzamide], for which the IC50 in the assay on LNCap cells (Table 7) fell in the range of 1000 to 10000 nM; on Human recombinant PARP2 (Table 9, read-out: PARP2), 1 to 10 nM.
As to `CC#C[C@]1(O)CC[C@H]2[C@@H]3CCC4=CC(=O)CCC4=C3[C@@H](c3ccc(N(C)CCCCCC(=O)NCCOCCOCC(=O)N4CCN(C(=O)c5cc(Cc6n[nH]c(=O)c7ccccc67)ccc5F)CC4)cc3)C[C@@]21C` [Compound 1429, N-(2-(2-(2-(4-(2-fluoro-5-((4-oxo-3,4-dihydrophthalazin-1-yl)methyl)benzoyl)piperazin-1-yl)-2-oxoethoxy)ethoxy)ethyl)-6-((4-((8S,11R,13S,14S,17S)-17-hydroxy-13-methyl-3-oxo-17-(prop-1-ynyl)-2,3,6,7,8,11,12,13,14,15,16,17-dodecahydro-1H-cyclopenta[a]phenanthren-11-yl)phenyl)(methyl)amino)hexanamide], the IC50 in the assay with LNCap cells (Table 8) is > 10000 nM; on Human recombinant PARP2 (Table 9, read-out: PARP2), < 1 nM.
For `CC(=O)O[C@]1(C(C)=O)CC[C@H]2[C@@H]3CCC4=CC(=O)CCC4=C3[C@@H](c3ccc(N(C)CCCCCC(=O)NCCOCCOCC(=O)N4CCN(C(=O)c5cc(Cc6n[nH]c(=O)c7ccccc67)ccc5F)CC4)cc3)C[C@@]21C` [Compound 1384, (8S,11R,13S,14S,17R)-17-acetyl-11-(4-((6-(2-(2-(2-(4-(2-fluoro-5-((4-oxo-3,4-dihydrophthalazin-1-yl)methyl)benzoyl)piperazin-1-yl)-2-oxoethoxy)ethoxy)ethylamino)-6-oxohexyl)(methyl)amino)phenyl)-13-methyl-3-oxo-2,3,6,7,8,11,12,13,14,15,16,17-dodecahydro-1H-cyclopenta[a]phenanthren-17-yl acetate] the same measures were 1000 to 10000 nM and < 1 nM.
`CC(=O)O[C@]1(C(C)=O)CC[C@H]2[C@@H]3CCC4=CC(=O)CCC4=C3[C@@H](c3ccc(N(C)CCCCCC(=O)N4CCN(C(=O)c5cc(Cc6n[nH]c(=O)c7ccccc67)ccc5F)CC4)cc3)C[C@@]21C` [Compound 1378, (8S,11R,13S,14S,17R)-17-acetyl-11-(4-((6-(4-(2-fluoro-5-((4-oxo-3,4-dihydrophthalazin-1-yl)methyl)benzoyl)piperazin-1-yl)-6-oxohexyl)(methyl)amino)phenyl)-13-methyl-3-oxo-2,3,6,7,8,11,12,13,14,15,16,17-dodecahydro-1H-cyclopenta[a]phenanthren-17-yl acetate]: the IC50 in the assay on LNCap cells (Table 8) was 100 to 1000 nM; on Human recombinant PARP2 (Table 9, read-out: PARP2), < 1 nM.
Taken in the same sequence, the figures for `C[C@]12CC[C@H]3[C@@H](CCC4=CC(=O)CC[C@@]43C)[C@@H]1CC[C@@H]2C(=O)COCCCCCC(=O)N1CCN(C(=O)c2cc(Cc3n[nH]c(=O)c4ccccc34)ccc2F)CC1` [Compound 1386, 4-(3-(4-(6-(2-((8S,9S,10R,13S,14S,17S)-10,13-dimethyl-3-oxo-2,3,6,7,8,9,10,11,12,13,14,15,16,17-tetradecahydro-1H-cyclopenta[a]phenanthren-17-yl)-2-oxoethoxy)hexanoyl)piperazine-1-carbonyl)-4-fluorobenzyl)phthalazin-1(2H)-one] were 100 to 1000 nM and < 1 nM.
As to `Cn1ncnc1C1c2n[nH]c(=O)c3cc(F)cc(c23)N[C@@H]1c1ccc(NC(=O)CCCCCO[C@@H]2CC[C@H]3[C@@H]4CC[C@H]5CCCC[C@]5(C)[C@H]4CC[C@]23C)cc1` (stereo partly drawn) [Compound 1128, 6-((5R,8R,9S,10S,13S,14S,17R)-10,13-dimethylhexadecahydro-1H-cyclopenta[a]phenanthren-17-yloxy)-N-(4-((8S)-5-fluoro-9-(1-methyl-1H-1,2,4-triazol-5-yl)-3-oxo-3,7,8,9-tetrahydro-2H-pyrido[4,3,2-de]phthalazin-8-yl)phenyl)hexanamide], the IC50 with LNCap cells (Table 7) is 100 to 1000 nM; on Human recombinant PARP2 (Table 5, in vitro results, read-out: PARP2 IC50) it was 14 nM.
